Experimental data from patent US8846670B2, “1,2,3,4-tetrahydro-pyrimido(1,2-a)pyrimidin-6-one derivatives, preparation thereof, and pharmaceutical use thereof” (priority 2009, dated 2014).

What was measured:
[1] = tested on: AKT protein phosphorylated on serine 473 (P-AKT-S473) in PC3 human prostate carcinoma line; assay: Study of pAKT expression in PC3 human prostate carcinoma cells measured by the MSD Multi-spot Biomarker Detection technique (Test B); format: cell-based; conditions: MSD sandwich immunoassay, 1 to 2 h incubation, absolute IC50, mean of 2 experiments
Method: The inhibitory activity of the molecules on AKT phosphorylation is measured either by western blotting using the technique described below, or by the MSD Multi-spot Biomarker detection technique from Meso Scale Discovery also described below.
Study of pAKT Expression in PC3Human Prostate Carcinoma Cells Measured by the MSD Multi-Spot Biomarker Detection Technique from Meso Scale Discovery (Test B):
The primary antibody specific for P-AKT-S473 (Kit #K151CAD) is coated onto an electrode in each well of the 96-well plates of the MSD kit: after the addition of a protein lysate to each well, the signal is visualised by adding a secondary detection antibody labelled with an electrochemiluminescent compound. The procedure followed is that described in the kit.
On day 2, the cells are incubated in the presence or absence of the test products for 1 to 2 h at 37° C. in the presence of 5% of CO2. The molecules, diluted in dimethyl sulphoxide (DMSO Sigma #D2650), are added from a 20-times concentrated stock solution, the final percentage of DMSO being 0.1%.
After this incubation, the cells are lysed for the preparation of the proteins. […] At this stage, the plates containing the lysates can be frozen at −20° C. or at −80° C.
The wells of the 96-well plates of the MSD kit are saturated for 1 h at ambient temperature with the blocking solution of the MSD kit. Four washes are carried out with 150 μl of Tris Wash Buffer of the MSD kit. The lysates previously prepared are transferred into the 96-well multi-spot plates of the MSD kit and incubated for 1 h at ambient temperature, with shaking. Four washes are carried out with 150 μl of Tris Wash Buffer of the MSD kit. 25 μl of the MSD sulfo-tag detection antibody solution are added to the wells and incubated for 1 h at ambient temperature, with shaking. Four washes are carried out with 150 μl of Tris Wash Buffer of the MSD kit. 150 μl of Read Buffer of the MSD kit are added to the wells and the plates are read immediately on the S12400 instrument from Meso Scale Discovery.
The instrument measures a signal for each well. Wells without cells and containing the lysis buffer serve to determine the background noise that will be subtracted from all the measurements (min). The wells containing cells in the absence of product and in the presence of 0.1% DMSO are considered to be the 100% signal (max). The percentage inhibition is calculated for each concentration of test product according to the following formula: (1−((test−min)/(max−min)))×100.
2 independent experiments make it possible to calculate the mean of the IC50 values.

[2] = tested on: translocation of the LC3 protein in Hela GFP-LC3 cells; assay: Study of the translocation of the LC3 protein in Hela human cells, measured by image analysis cytometry (Test C, autophagy); format: cell-based; conditions: 2 h, Hela GFP-LC3 cells with LC3 granulations, EBSS + 10 μM hydroxychloroquine, absolute IC50
Method: The inhibitory activity of the molecules on autophagy is measured by the translocation of the LC3 protein from the cytoplasm to the autophagosomes. For this, Hela cells were transfected with a vector encoding the chimeric protein GFP-LC3. A Hela clone stably expressing the GFP-LC3 protein was selected.
Study of the Translocation of the LC3 Protein in Hela Human Cells, Measured by Image Analysis Cytometry (Test C):
On day 2, the cells are washed twice with EBSS (Sigma #E3024). The cells are then incubated in EBSS, 10 μM of hydroxychloroquine and test products for 2 h at 37° C. in the presence of 5% CO2. The molecules are diluted in dimethyl sulphoxide (DMSO Sigma #D2650), the final DMSO percentage being 0.1%.
After this incubation, the cells are fixed with 4% paraformaldehyde (Sigma #HT501128 4 L) for 10 min. […] The 96-well plates are then read with the iCyte image analysis cytometer (Compucyte).
Two independent experiments make it possible to calculate the mean of the IC50 values.

[3] = Homo sapiens, PC-3, P-AKT-S473 in PC3 cells

Structure (SMILES) | IC50 [1, 3] | IC50 ([2]; Homo sapiens, HeLa) | IC50 ([1]; P-AKT-S473 in PC3 cells) | IC50 [2]
O=c1cc(N2CCOCC2)nc2n1CC[C@@H](C(F)(F)F)N2Cc1cccc(F)c1 [Example 23, (8S)-9-(3-fluorobenzyl)-2-(morpholin-4-yl)-8-(trifluoromethyl)-6,7,8,9-tetrahydro-4H-pyrimido[1,2-a]pyrimidin-4-one] | 0.024 µM | 0.663 µM | – | –
CC(c1ccc(F)cc1)N1c2nc(N3CCOCC3)cc(=O)n2CC[C@H]1C(F)(F)F (single isomer, unassigned) [Example 33, (8S)-9-[(1R or 1S)-1-(4-fluorophenyl)ethyl]-2-(morpholin-4-yl)-8-(trifluoromethyl)-6,7,8,9-tetrahydro-4H-pyrimido[1,2-a]pyrimidin-4-one] | 0.024 µM | 0.221 µM | – | –
C[C@H](c1ccc(Br)cc1)N1c2nc(N3CCOCC3)cc(=O)n2CC[C@H]1C(F)(F)F (single isomer, unassigned) [Example 11, (8S)-9-[(1S or 1R)-1-(4-bromophenyl)ethyl]-2-(morpholin-4-yl)-8-(trifluoromethyl)-6,7,8,9-tetrahydro-4H-pyrimido[1,2-a]pyrimidin-4-one] | 0.046 µM | 0.319 µM | – | –
CC(c1ccc(F)cc1)N1c2nc(N3CCOCC3)cc(=O)n2CC[C@H]1C(F)(F)F (single isomer, unassigned) [Example 34, (8S)-9-[(1R or 1S)-1-(4-fluorophenyl)ethyl]-2-(morpholin-4-yl)-8-(trifluoromethyl)-6,7,8,9-tetrahydro-4H-pyrimido[1,2-a]pyrimidin-4-one] | – | – | 0.022 µM | 0.035 µM
COc1cccc(CN2c3nc(N4CCOCC4)cc(=O)n3CC[C@H]2C(F)(F)F)c1 [Example 26, (8S)-9-(3-methoxybenzyl)-2-(morpholin-4-yl)-8-(trifluoromethyl)-6,7,8,9-tetrahydro-4H-pyrimido[1,2-a]pyrimidin-4-one] | 0.018 µM | 0.27 µM | – | –
O=c1cc(N2CCOCC2)nc2n1CC[C@@H](C(F)(F)F)N2Cc1csc2ccc(Cl)cc12 [Example 32, (8S)-9-[(5-chloro-1-benzothiophen-3-yl)methyl]-2-(morpholin-4-yl)-8-(trifluoromethyl)-6,7,8,9-tetrahydro-4H-pyrimido[1,2-a]pyrimidin-4-one] | 0.033 µM | 0.78 µM | – | –
O=c1cc(N2CCOCC2)nc2n1CC[C@@H](C(F)(F)F)N2CCc1cccc(Cl)c1 [Example 46, (8S)-9-[2-(3-chlorophenyl)ethyl]-2-(morpholin-4-yl)-8-(trifluoromethyl)-6,7,8,9-tetrahydro-4 H-pyrimido[1,2-a]pyrimidin-4-one] | 0.004 µM | 0.016 µM | – | –
O=C(c1ccccc1F)N1c2nc(N3CCOCC3)cc(=O)n2CC[C@H]1C(F)(F)F [Example 28, (8S)-9-[(2-fluorophenyl)carbonyl]-2-(morpholin-4-yl)-8-(trifluoromethyl)-6,7,8,9-tetrahydro-4H-pyrimido[1,2-a]pyrimidin-4-one] | 0.033 µM | > 10 µM | – | –
O=c1cc(N2CCOCC2)nc2n1CC[C@@H](C(F)(F)F)N2Cc1ccc(F)c(F)c1F [Example 31, (8S)-2-(morpholin-4-yl)-9-(2,3,4-trifluorobenzyl)-8-(trifluoro-methyl)-6,7,8,9-tetrahydro-4H-pyrimido[1,2-a]pyrimidin-4-one] | 0.15 µM | 0.557 µM | – | –
Cc1ccc(N2c3nc(N4CCOCC4)cc(=O)n3CC[C@H]2C(F)(F)F)cc1 [Example 21, (8S)-9-(4-methylphenyl)-2-(morpholin-4-yl)-8-(trifluoro-methyl)-6,7,8,9-tetrahydro-4H-pyrimido[1,2-a]pyrimidin-4-one] | 0.024 µM | 0.157 µM | – | –
CC(c1ccccc1F)N1c2nc(N3CCOCC3)cc(=O)n2CC[C@H]1C(F)(F)F (single isomer, unassigned) [Example 38, (8S)-9-[(1R or 1S)-1-(2-fluorophenyl)ethyl]-2-(morpholin-4-yl)-8-(trifluoromethyl)-6,7,8,9-tetrahydro-4 H-pyrimido[1,2-a]pyrimidin-4-one] | – | 0.167 µM | 0.002 µM | –
O=c1cc(N2CCOCC2)nc2n1CC[C@@H](C(F)(F)F)N2Cc1ccc(F)cc1F [Example 30, (8S)-9-(2,4-difluorobenzyl)-2-(morpholin-4-yl)-8-(trifluoro-methyl)-6,7,8,9-tetrahydro-4H-pyrimido[1,2-a]pyrimidin-4-one] | 0.043 µM | 0.212 µM | – | –
O=c1c(F)c(N2CCOCC2)nc2n1CC[C@@H](C(F)(F)F)N2Cc1ccccc1 [Example 41, (8S)-9-benzyl-3-fluoro-2-(morpholin-4-yl)-8-(trifluoro-methyl)-6,7,8,9-tetrahydro-4 H-pyrimido[1,2-a]pyrimidin-4-one] | 0.004 µM | 0.192 µM | – | –
O=C(c1c(F)cccc1F)N1c2nc(N3CCOCC3)cc(=O)n2CC[C@H]1C(F)(F)F [Example 43, (8S)-9-[(2,6-difluorophenyl)carbonyl]-2-(morpholin-4-yl)-8-(trifluoromethyl)-6,7,8,9-tetrahydro-4 H-pyrimido[1,2-a]pyrimidin-4-one] | 0.016 µM | 0.986 µM | – | –

Now from value to molecule:

IC50 [1, 3] | IC50 ([2]; Homo sapiens, HeLa) | IC50 ([1]; P-AKT-S473 in PC3 cells) | IC50 [2] | Structure (SMILES)
0.039 µM | > 1 µM | – | – | O=c1cc(N2CCOCC2)nc2n1CC[C@@H](C(F)(F)F)N2c1cccnc1 [Example 19, (S)-2-morpholin-4-yl-9-pyridin-3-yl-8-trifluoromethyl-6,7,8,9-tetrahydropyrimido[1,2-a]pyrimidin-4-one]
– | – | 0.005 µM | 0.237 µM | CC(c1ccccc1F)N1c2nc(N3CCOCC3)cc(=O)n2CC[C@H]1C(F)(F)F (single isomer, unassigned) [Example 39, (8S)-9-[(1R or 1S)-1-(2-fluorophenyl)ethyl]-2-(morpholin-4-yl)-8-(trifluoromethyl)-6,7,8,9-tetrahydro-4 H-pyrimido[1,2-a]pyrimidin-4-one]
0.023 µM | 0.785 µM | – | – | O=c1cc(N2CCOCC2)nc2n1CC[C@@H](C(F)(F)F)N2Cc1ccccc1Cl [Example 22, (8S)-9-(2-chlorobenzyl)-2-(morpholin-4-yl)-8-(trifluoro-methyl)-6,7,8,9-tetrahydro-4H-pyrimido[1,2-a]pyrimidin-4-one]
0.007 µM | 0.038 µM | – | – | COc1cccc(CCN2c3nc(N4CCOCC4)cc(=O)n3CC[C@H]2C(F)(F)F)c1 [Example 25]
0.02 µM | 0.65 µM | – | – | Cc1cccc(N2c3nc(N4CCOCC4)cc(=O)n3CC[C@H]2C(F)(F)F)c1 [Example 35, (8S)-9-(3-methylphenyl)-2-(morpholin-4-yl)-8-(trifluoro-methyl)-6,7,8,9-tetrahydro-4H-pyrimido[1,2-a]pyrimidin-4-one]
0.018 µM | 0.27 µM | – | – | O=c1cc(N2CCOCC2)nc2n1CC[C@@H](C(F)(F)F)N2c1ccc(C(F)(F)F)cc1 [Example 37, (8S)-2-(morpholin-4-yl)-8-(trifluoromethyl)-9-[4-(trifluoro-methyl)phenyl]-6,7,8,9-tetrahydro-4H-pyrimido[1,2-a]pyrimidin-4-one]
0.015 µM | 0.337 µM | – | – | O=c1cc(N2CCOCC2)nc2n1CC[C@@H](C(F)(F)F)N2c1cccc(F)c1 [Example 14, (8S)-9-(3-fluorophenyl)-2-(morpholin-4-yl)-8-(trifluoromethyl)-6,7,8,9-tetrahydro-4H-pyrimido[1,2-a]pyrimidin-4-one]
0.018 µM | 0.157 µM | – | – | O=c1cc(N2CCOCC2)nc2n1CC[C@@H](C(F)(F)F)N2c1ccc(Cl)cc1 [Example 36, (8S)-9-(4-chlorophenyl)-2-(morpholin-4-yl)-8-(trifluoro-methyl)-6,7,8,9-tetrahydro-4H-pyrimido[1,2-a]pyrimidin-4-one]
